Assay results: PubChem BioAssay (NCI)
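Step 1: Grow cells in 96-well plates. Step 2: Expose to compound for 48 hours at 5 concentrations. Step 3: Interpolate endpoints linearly; if unreached, use highest concentration. At the GI50, growth is halved. Definition used: TGI = concentration required for complete inhibition of growth.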

Experiments:
Test in all cases: inhibition of tumour cell growth, NCI panel, 48 h
T-47D breast = tested on: T-47D breast
KM12 colon = tested on: KM12 colon
SF-539 CNS = tested on: SF-539 CNS
RPMI-8226 leukemia = tested on: RPMI-8226 leukemia
HCC-2998 colon = tested on: HCC-2998 colon
786-0 renal = tested on: 786-0 renal
SK-MEL-28 melanoma = tested on: SK-MEL-28 melanoma
UACC-62 melanoma = tested on: UACC-62 melanoma
NCI/ADR-RES ovarian = tested on: NCI/ADR-RES ovarian
HT29 colon = tested on: HT29 colon
SF-295 CNS = tested on: SF-295 CNS
NCI-H522 lung = tested on: NCI-H522 lung
MALME-3M melanoma = tested on: MALME-3M melanoma
HCT-15 colon = tested on: HCT-15 colon
MOLT-4 leukemia = tested on: MOLT-4 leukemia
A549 NSCLC = tested on: A549 NSCLC
COLO 205 colon = tested on: COLO 205 colon
HCT-116 colon = tested on: HCT-116 colon
SN12C renal = tested on: SN12C renal
U251 CNS = tested on: U251 CNS
A498 renal = tested on: A498 renal
SNB-75 CNS = tested on: SNB-75 CNS
TK-10 renal = tested on: TK-10 renal
OVCAR-5 ovarian = tested on: OVCAR-5 ovarian
NCI-H460 lung = tested on: NCI-H460 lung
ACHN renal = tested on: ACHN renal
MDA-MB-231 breast = tested on: MDA-MB-231 breast
MCF7 breast = tested on: MCF7 breast
NCI-H226 lung = tested on: NCI-H226 lung
OVCAR-3 ovarian = tested on: OVCAR-3 ovarian
IGROV1 ovarian = tested on: IGROV1 ovarian
NCI-H23 lung = tested on: NCI-H23 lung
SK-OV-3 ovarian = tested on: SK-OV-3 ovarian
HL-60(TB) leukemia = tested on: HL-60(TB) leukemia
M14 melanoma = tested on: M14 melanoma
HOP-92 NSCLC = tested on: HOP-92 NSCLC
RXF 393 renal = tested on: RXF 393 renal
HOP-62 NSCLC = tested on: HOP-62 NSCLC
MDA-MB-435 = tested on: MDA-MB-435
PC-3 prostate = tested on: PC-3 prostate
SF-268 CNS = tested on: SF-268 CNS
SR leukemia = tested on: SR leukemia
SNB-19 CNS = tested on: SNB-19 CNS
OVCAR-4 ovarian = tested on: OVCAR-4 ovarian
BT-549 breast = tested on: BT-549 breast
SW-620 colon = tested on: SW-620 colon
CAKI-1 renal = tested on: CAKI-1 renal
OVCAR-8 ovarian = tested on: OVCAR-8 ovarian
UO-31 renal = tested on: UO-31 renal
CCRF-CEM leukemia = tested on: CCRF-CEM leukemia
HS 578T breast = tested on: HS 578T breast
UACC-257 melanoma = tested on: UACC-257 melanoma
K-562 leukemia = tested on: K-562 leukemia
DU-145 prostate = tested on: DU-145 prostate
EKVX NSCLC = tested on: EKVX NSCLC
LOX IMVI melanoma = tested on: LOX IMVI melanoma
SK-MEL-5 melanoma = tested on: SK-MEL-5 melanoma
SK-MEL-2 melanoma = tested on: SK-MEL-2 melanoma

`CC(=O)N1N=C(c2ccc(Nc3nc(Nc4ccc(F)cc4)nc(Nc4ccc(Cl)cc4)n3)cc2)CC1c1ccc(N(C)C)cc1` (centres undefined) was tested, and the GI50 (T-47D breast) was 2.01 µM, the TGI (T-47D breast) was 16 µM and the GI50 (KM12 colon) was 6.02 µM. The TGI (KM12 colon) was 20.9 µM, the GI50 (SF-539 CNS) was 15.8 µM and the TGI (SF-539 CNS) was over 63.9 µM. It also gave a GI50 (RPMI-8226 leukemia) of 4.15 µM, a TGI (RPMI-8226 leukemia) of over 100 µM and a GI50 (HCC-2998 colon) of 2.26 µM. The TGI (HCC-2998 colon) was 7.45 µM, the GI50 (786-0 renal) was 3.65 µM and the TGI (786-0 renal) was 13.7 µM. It also gave a GI50 (SK-MEL-28 melanoma) of 11.7 µM, a TGI (SK-MEL-28 melanoma) of 40.1 µM and a GI50 (UACC-62 melanoma) of 2.26 µM. The TGI (UACC-62 melanoma) was 7.79 µM, the GI50 (NCI/ADR-RES ovarian) was 1.65 µM and the TGI (NCI/ADR-RES ovarian) was 15.7 µM. It also gave a GI50 (HT29 colon) of 3.58 µM, a TGI (HT29 colon) of over 75.9 µM and a GI50 (SF-295 CNS) of 9.73 µM. For the same molecule, the TGI (SF-295 CNS) was 37.4 µM, the GI50 (NCI-H522 lung) was 3.79 µM and the TGI (NCI-H522 lung) was over 58.3 µM. For the same molecule, the GI50 (MALME-3M melanoma) was 4.78 µM, the TGI (MALME-3M melanoma) was 23.8 µM and the GI50 (HCT-15 colon) was 2.64 µM. The TGI (HCT-15 colon) was 30.5 µM, the GI50 (MOLT-4 leukemia) was 4.2 µM and the TGI (MOLT-4 leukemia) was 30.9 µM. It also gave a GI50 (A549 NSCLC) of 4.27 µM, a TGI (A549 NSCLC) of 43 µM and a GI50 (COLO 205 colon) of 1.81 µM. It also gave a TGI (COLO 205 colon) of 5.9 µM, a GI50 (HCT-116 colon) of 2.42 µM and a TGI (HCT-116 colon) of 10.1 µM. It also gave a GI50 (SN12C renal) of 6.1 µM, a TGI (SN12C renal) of 33.3 µM and a GI50 (U251 CNS) of 4.2 µM. For the same molecule, the TGI (U251 CNS) was 35.7 µM, the GI50 (A498 renal) was 14.4 µM and the TGI (A498 renal) was 50.5 µM. The GI50 (SNB-75 CNS) was 3.02 µM, the TGI (SNB-75 CNS) was 20.3 µM and the GI50 (TK-10 renal) was 8.59 µM. It also gave a TGI (TK-10 renal) of 31 µM, a GI50 (OVCAR-5 ovarian) of 14 µM and a TGI (OVCAR-5 ovarian) of 43.6 µM. For the same molecule, the GI50 (NCI-H460 lung) was 6.68 µM, the TGI (NCI-H460 lung) was 45 µM and the GI50 (ACHN renal) was 4.03 µM. For the same molecule, the TGI (ACHN renal) was over 58.4 µM, the GI50 (MDA-MB-231 breast) was 5.66 µM and the TGI (MDA-MB-231 breast) was 21 µM. It also gave a GI50 (MCF7 breast) of 3.94 µM, a TGI (MCF7 breast) of 26.9 µM and a GI50 (NCI-H226 lung) of 4.91 µM. For the same molecule, the TGI (NCI-H226 lung) was 28 µM, the GI50 (OVCAR-3 ovarian) was 9.51 µM and the TGI (OVCAR-3 ovarian) was 31.7 µM. For the same molecule, the GI50 (IGROV1 ovarian) was 2.96 µM, the TGI (IGROV1 ovarian) was 15.8 µM and the GI50 (NCI-H23 lung) was 2.96 µM. For the same molecule, the TGI (NCI-H23 lung) was 16.1 µM, the GI50 (SK-OV-3 ovarian) was 6.82 µM and the TGI (SK-OV-3 ovarian) was over 31.2 µM. It also gave a GI50 (HL-60(TB) leukemia) of 5.04 µM, a TGI (HL-60(TB) leukemia) of 15.7 µM and a GI50 (M14 melanoma) of 3.05 µM. It also gave a TGI (M14 melanoma) of 10.8 µM, a GI50 (HOP-92 NSCLC) of 2.87 µM and a TGI (HOP-92 NSCLC) of 19.1 µM. The GI50 (RXF 393 renal) was 1.63 µM, the TGI (RXF 393 renal) was 5.33 µM and the GI50 (HOP-62 NSCLC) was 3.25 µM. It also gave a TGI (HOP-62 NSCLC) of 13.2 µM, a GI50 (MDA-MB-435) of 5.68 µM and a TGI (MDA-MB-435) of 20.9 µM. It also gave a GI50 (PC-3 prostate) of 3.18 µM, a TGI (PC-3 prostate) of over 64.8 µM and a GI50 (SF-268 CNS) of 12.1 µM. The TGI (SF-268 CNS) was 49.2 µM, the GI50 (SR leukemia) was 2.1 µM and the TGI (SR leukemia) was 5.18 µM. For the same molecule, the GI50 (SNB-19 CNS) was 6.26 µM, the TGI (SNB-19 CNS) was over 56.2 µM and the GI50 (OVCAR-4 ovarian) was 4.41 µM. For the same molecule, the TGI (OVCAR-4 ovarian) was over 100 µM, the GI50 (BT-549 breast) was 5.05 µM and the TGI (BT-549 breast) was 17.5 µM. It also gave a GI50 (SW-620 colon) of 13.3 µM, a TGI (SW-620 colon) of 56.8 µM and a GI50 (CAKI-1 renal) of 9.28 µM. For the same molecule, the TGI (CAKI-1 renal) was over 54.3 µM, the GI50 (OVCAR-8 ovarian) was 3.75 µM and the TGI (OVCAR-8 ovarian) was 23.4 µM. For the same molecule, the GI50 (UO-31 renal) was 3.11 µM, the TGI (UO-31 renal) was 16.6 µM and the GI50 (CCRF-CEM leukemia) was 5.23 µM. It also gave a TGI (CCRF-CEM leukemia) of over 100 µM, a GI50 (HS 578T breast) of 8.09 µM and a TGI (HS 578T breast) of 97.9 µM. For the same molecule, the GI50 (UACC-257 melanoma) was 7.67 µM, the TGI (UACC-257 melanoma) was 26.1 µM and the GI50 (K-562 leukemia) was over 32.4 µM. It also gave a TGI (K-562 leukemia) of over 81.9 µM, a GI50 (DU-145 prostate) of 10.2 µM and a TGI (DU-145 prostate) of 39 µM. The GI50 (EKVX NSCLC) was 8.06 µM, the TGI (EKVX NSCLC) was over 90.9 µM and the GI50 (LOX IMVI melanoma) was 3.85 µM. For the same molecule, the TGI (LOX IMVI melanoma) was 12.8 µM, the GI50 (SK-MEL-5 melanoma) was 6.68 µM and the TGI (SK-MEL-5 melanoma) was 19.3 µM.
Molecule `COc1ccc2c(c1)C1c3ccccc3CCN1CCC2` (centres undefined) has a TGI (T-47D breast) of over 100 µM, a TGI (KM12 colon) of over 100 µM and a TGI (SF-539 CNS) of over 100 µM. For the same molecule, the TGI (RPMI-8226 leukemia) was 96.8 µM, the TGI (HCC-2998 colon) was 63.5 µM and the TGI (786-0 renal) was over 100 µM. It also gave a TGI (SK-MEL-28 melanoma) of over 100 µM, a TGI (UACC-62 melanoma) of over 100 µM and a TGI (NCI/ADR-RES ovarian) of over 100 µM. The TGI (HT29 colon) was over 100 µM, the TGI (SF-295 CNS) was 54 µM and the TGI (NCI-H522 lung) was 98.1 µM. It also gave a TGI (HCT-15 colon) of over 100 µM, a TGI (MOLT-4 leukemia) of over 100 µM and a TGI (A549 NSCLC) of over 100 µM. It also gave a TGI (SK-MEL-2 melanoma) of 70.8 µM, a TGI (COLO 205 colon) of over 100 µM and a TGI (HCT-116 colon) of over 100 µM. The TGI (SN12C renal) was over 100 µM, the TGI (U251 CNS) was over 100 µM and the TGI (A498 renal) was over 100 µM. It also gave a TGI (SNB-75 CNS) of 64.2 µM, a TGI (TK-10 renal) of over 100 µM and a TGI (OVCAR-5 ovarian) of over 100 µM. It also gave a TGI (ACHN renal) of over 100 µM, a TGI (MDA-MB-231 breast) of 84.7 µM and a TGI (MCF7 breast) of over 100 µM. It also gave a TGI (NCI-H226 lung) of over 100 µM, a TGI (OVCAR-3 ovarian) of over 100 µM and a TGI (IGROV1 ovarian) of over 100 µM. It also gave a TGI (NCI-H23 lung) of over 100 µM, a TGI (SK-OV-3 ovarian) of over 100 µM and a TGI (M14 melanoma) of over 100 µM. It also gave a TGI (HOP-92 NSCLC) of over 100 µM, a TGI (RXF 393 renal) of over 100 µM and a TGI (HOP-62 NSCLC) of over 100 µM. It also gave a TGI (MDA-MB-435) of 51.1 µM, a TGI (PC-3 prostate) of over 100 µM and a TGI (SF-268 CNS) of over 100 µM. It also gave a TGI (SR leukemia) of over 100 µM, a TGI (SNB-19 CNS) of over 100 µM and a TGI (OVCAR-4 ovarian) of over 100 µM. The TGI (BT-549 breast) was 68.2 µM, the TGI (SW-620 colon) was over 100 µM and the TGI (CAKI-1 renal) was over 100 µM. For the same molecule, the TGI (OVCAR-8 ovarian) was over 100 µM, the TGI (UO-31 renal) was over 100 µM and the TGI (CCRF-CEM leukemia) was over 100 µM. For the same molecule, the TGI (HS 578T breast) was over 100 µM, the TGI (UACC-257 melanoma) was over 100 µM and the TGI (K-562 leukemia) was over 100 µM. It also gave a TGI (DU-145 prostate) of over 100 µM, a TGI (EKVX NSCLC) of over 100 µM and a TGI (LOX IMVI melanoma) of over 100 µM. The TGI (SK-MEL-5 melanoma) was over 100 µM.
